{"source": "patent US6692937B2", "about": "“DNA encoding small and intermediate conductance calcium-activated potassium channels” (ICAgen, Incorporated, priority 1997, dated 2004)", "assay_type_in_all_cases": "cell-based", "key": {"[1]": {"molecular_target": "T1, hSK1 (Homo sapiens, UniProt Q92952)", "T1 construct": "expressed in transfected cells; host or cells: Xenopus oocytes injected with in vitro transcribed mRNA", "T1 sequence (Q92952 other isoform, or with tags, fused parts or gaps)": "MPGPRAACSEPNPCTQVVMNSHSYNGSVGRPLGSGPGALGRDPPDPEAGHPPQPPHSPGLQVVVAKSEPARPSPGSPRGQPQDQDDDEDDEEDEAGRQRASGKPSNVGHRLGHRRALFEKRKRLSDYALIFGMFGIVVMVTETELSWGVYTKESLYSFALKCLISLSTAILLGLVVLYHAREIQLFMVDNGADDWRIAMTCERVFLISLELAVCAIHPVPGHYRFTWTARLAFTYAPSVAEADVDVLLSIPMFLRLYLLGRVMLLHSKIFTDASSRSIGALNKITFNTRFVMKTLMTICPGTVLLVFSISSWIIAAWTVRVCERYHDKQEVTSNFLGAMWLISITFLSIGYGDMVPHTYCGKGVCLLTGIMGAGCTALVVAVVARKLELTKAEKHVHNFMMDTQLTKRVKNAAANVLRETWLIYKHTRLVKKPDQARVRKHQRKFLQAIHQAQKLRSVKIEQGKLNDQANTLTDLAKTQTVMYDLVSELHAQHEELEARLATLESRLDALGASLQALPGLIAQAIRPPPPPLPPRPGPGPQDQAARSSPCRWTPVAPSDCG", "experiment": "Macroscopic currents in inside-out macropatches excised from Xenopus oocytes expressing hSK1", "text": "(§1) Electrode resistance was typically 2-5 MΩ. Membrane patches were voltage clamped using an Axopatch 200A amplifier (Axon Instruments)."}, "[2]": {"molecular_target": "T2, rSK2 (Rattus norvegicus, UniProt P70604)", "T2 construct": "expressed in transfected cells; host or cells: Xenopus oocytes injected with in vitro transcribed mRNA", "T2 sequence (P70604 whole entry)": "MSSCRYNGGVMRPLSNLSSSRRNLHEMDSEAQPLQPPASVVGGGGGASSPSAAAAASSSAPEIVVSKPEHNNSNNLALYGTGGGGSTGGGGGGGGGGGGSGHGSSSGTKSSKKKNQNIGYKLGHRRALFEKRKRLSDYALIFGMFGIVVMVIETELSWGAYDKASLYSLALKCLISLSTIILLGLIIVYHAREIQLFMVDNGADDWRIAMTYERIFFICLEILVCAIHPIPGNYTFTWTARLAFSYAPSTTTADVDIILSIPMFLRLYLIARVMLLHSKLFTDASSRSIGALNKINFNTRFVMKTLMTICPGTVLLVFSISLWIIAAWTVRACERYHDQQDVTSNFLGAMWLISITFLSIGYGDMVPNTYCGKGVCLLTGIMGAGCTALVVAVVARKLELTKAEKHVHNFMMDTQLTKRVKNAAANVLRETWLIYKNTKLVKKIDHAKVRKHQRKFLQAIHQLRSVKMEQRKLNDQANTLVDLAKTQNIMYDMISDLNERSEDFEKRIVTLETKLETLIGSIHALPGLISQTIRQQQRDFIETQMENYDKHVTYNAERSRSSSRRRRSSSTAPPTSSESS", "experiment": "Macroscopic currents in inside-out macropatches excised from Xenopus oocytes expressing rSK2", "text": "as §1\n(§2) To compare hIK1 and SK2, normalized current was plotted as a function of Ca^2+ concentration, and the data points fitted with the Hill equation."}, "[3]": {"molecular_target": "T3, hIK1 (Homo sapiens, UniProt O15554)", "T3 construct": "expressed in transfected cells; host or cells: Xenopus oocytes injected with SP6-transcribed mRNA from vector pBF", "experiment": "Macroscopic hIK1 currents in macropatches excised from Xenopus oocytes", "protocol": "3B. Example 3B describes the electrophysiology of the hIK1 channel. All hIK1 channel subunits were subcloned into the oocyte expression vector pBF (unpublished, graciously provided by Dr. B. Fakler) which provides 5′ and 3′ untranslated regions from the Xenopus β-globin gene flanking a polylinker containing multiple restriction sites. In vitro mRNAs were generated using SP6 polymerase (GibcoBRL); following synthesis, mRNAs were evaluated spectrophotometrically and by ethidium bromide staining after agarose gel electrophoresis.\nAs described above, Xenopus care and handling were in accordance with the highest standards of institutional guidelines. Frogs underwent no more than two surgeries, separated by at least three weeks, and All surgeries were performed using well established techniques. Frogs were anesthetized with an aerated solution of 3-aminobenzoic acid ethyl ester. Oocytes were studied 2-14 days after injection with 0.5-5 ng of mRNA.\nInside-out macropatches were excised into an intracellular solution containing 116 mM K-gluconate. 4 mM KCl, 10 mM HEPES (pH 7.2, adjusted with KOH) supplemented with CaCl2 to give free calcium concentration of 5 μM; the proportion of calcium binding to gluconate was determined by a computer program (CaBuf assuming a stability constant for Ca^2+ gluconate of 15.9M^−1 (Dawson et al., 1969). To obtain Ca^2+ concentrations below 1 μM, 1 mM EGTA was added to the bath solution and CaCl2 was added as calculated using the CaBuf program and published stability constants (Fabiato and Fabiato, 1979). Electrodes were pulled from thin-wailed, filamented borosilicate glass (World Precision Instruments) and filled with 116 mM K-gluconate, 4 mM KCl, 10 mM HEPES (pH 7.2). Electrode resistance was typically 2-5 MΩ. For outside-out macropatches, the solutions were reversed. Membrane patches were voltage clamped using an Axopatch 200A amplifier (Axon Instruments). The data were low-pass Bessel filtered at 1 kH and acquired using Pulse software (HEKA Electronik). Analysis was performed using Pulse, Kaleidagraph (Abelbeck), or IGOR (Wavemetrics) software. Unless otherwise stated all experiments were performed at room temperature from a holding potential of 0 mV. 2.5 second voltage ramps from −100 to either 60 or 100 mV were acquired at a sampling frequency of 500 Hz. Values were expressed as mean±SD. Statistical differences were determined using an unpaired t-test; p values <0.05 were considered significant.\nas §2"}}, "note": "Read-outs that look alike come from different tables or passages of the source.", "data": [{"compound": "[Ca+2]", "note": "[calcium]", "values": [{"measurement": "Hill coefficient of calcium dependence, hSK1", "setting": "[1]; Hill fit", "result": "3.90±0.45"}, {"measurement": "Kd", "setting": "[1]; Hill fit, read-out: Kd for calcium, hSK1", "result": "700 ± 60", "unit": "nM"}, {"measurement": "Hill coefficient of calcium dependence, rSK2", "setting": "[2]; Hill fit, 8 patches", "result": "4.81±1.46"}, {"measurement": "Hill coefficient of Ca2+-dependence, SK2", "setting": "[2]; n=4", "result": "3.5±0.4"}, {"measurement": "Kd", "setting": "[2]; slope conductance at reversal potential versus calcium, Hill fit, 8 patches, read-out: average Kd for calcium, rSK2", "result": "630 ± 230", "unit": "nM"}, {"measurement": "Hill coefficient of Ca2+-dependence, hIK1", "setting": "[3]; n=7", "result": "1.7±0.3"}, {"measurement": "EC50", "setting": "[3]; normalized current versus Ca2+ concentration, n=7, read-out: K0.5 (concentration for half-maximal activation), hIK1", "result": "320 ± 30", "unit": "nM"}]}, {"compound": "CC(C)C[C@@H]1NC(=O)[C@H](C)NC(=O)[C@H]([C@@H](C)O)NC(=O)[C@H](CCC(=O)O)NC(=O)[C@@H]2CCCN2C(=O)[C@H](C)NC(=O)[C@H](CCCCN)NC(=O)[C@@H]2CSSC[C@@H](C(=O)N[C@@H](CCC(N)=O)C(=O)N[C@@H](CCC(N)=O)C(=O)N[C@@H](Cc3cnc[nH]3)C(N)=O)NC(=O)[C@H](CCCNC(=N)N)NC(=O)[C@H](CCCNC(=N)N)NC(=O)[C@H](C)NC(=O)[C@H](CSSC[C@H](N)C(=O)N[C@@H](CC(N)=O)C(=O)N2)NC1=O", "note": "[apamin]", "values": [{"measurement": "reduction of hIK1 currents", "setting": "[3]; 100 nM apamin", "result": "12±5", "unit": "%"}]}, {"compound": "COc1cc2c3cc1Oc1cc(ccc1O)C[C@@H]1c4c(cc(OC)c(O)c4Oc4ccc(cc4)C[C@@H]3N(C)CC2)CC[N+]1(C)C", "note": "[dTC, d-tubocurare, reference compound]", "values": [{"measurement": "fold less sensitive, hSK1 versus rSK2", "setting": "[1]; ratio of Kd hSK1 to Kd rSK2", "result": "approximately 30 fold"}, {"measurement": "Kd", "setting": "[1]; read-out: Kd for block of hSK1", "result": 76200, "unit": "nM"}, {"measurement": "Kd", "setting": "[2]; 5 μM Ca2+, inside-out macropatches, dTC in patch pipette, read-out: Kd for block of rSK2 currents", "result": 2400, "unit": "nM"}]}, {"compound": "CC(=O)N1CCN(c2ccc(OCC3COC(Cn4ccnc4)(c4ccc(Cl)cc4Cl)O3)cc2)CC1", "note": "(stereo not shown) [ketoconazole]", "values": [{"measurement": "block of hIK1", "setting": "[3]; 10 μM ketoconazole", "result": "24±6", "unit": "%"}]}, {"compound": "iberiotoxin (QFTDVDCSVSKECWSVCKDLFGVDRGKCMGKKCRCYQ) [IBX]", "values": [{"measurement": "block of hIK1 currents", "setting": "[3]; 50 nM IBX", "result": "15±3", "unit": "%"}]}]}
